Laboratory results from publication PMC4297530 (Biological psychiatry, 2014).

Legend:
[1] = tested on: histone acetylation in brain; details: at the dose used in present study (5 mg/kg i.p.); cited from earlier work
[2] = tested on: GR translocation in RN46A-B14 cells; assay: DEX-induced GR-GFP translocation, high-content imaging; type: cell-based, rat; details: 2.5 μM for 1 hour, then 1 μM DEX 30 min, p<0.05 vs. vehicle
[3] = tested on: Hsp90 / α-tubulin acetylation and Hsp90-FKBP51/52 association; assay: Co-immunoprecipitation and acetylation blots in RN46 serotonin cell line; type: cell-based, rat; details: 2.5 uM, RN46 cells, vs vehicle
[4] = tested on: plasma corticosterone (HPA axis); assay: Combined DEX/CRF test, plasma corticosterone; type: in vivo, mouse

Row | Compound | histone acetylation in brain [1] | GR translocation induced by dexamethasone [2] | association of Hsp90 with FKBP51 ([3]; co-IP) | interaction of Hsp90 with FKBP52 ([3]; co-IP) | acetylation of α-tubulin ([3]; input samples) | acetylation of Hsp90 at lysine 294 [3] | CORT response following DEX/CRF challenge ([4]; chronic ACY-738 treatment, data not shown) | percent change in plasma corticosterone, resilient mice ([4]; 6 hours after DEX 0.05 mg/kg, CSDS resilient mice) [%] | percent change in plasma corticosterone, control mice ([4]; 6 hours after DEX 0.05 mg/kg, undefeated control mice) [%]
1 | O=C(NO)c1cnc(NC2(c3ccccc3)CC2)nc1 [ACY-738] | does not elevate | significantly reduced | increased association | reduced interaction | increase | increased acetylation | did not alter |  | 
2 | CN1CCc2c(c3ccccc3n2Cc2ccc(C(=O)NO)cc2)C1 [Tubastatin A] |  | significantly reduced |  |  |  |  |  |  | 
3 | C[C@@H]1C[C@H]2[C@@H]3CCC4=CC(=O)C=C[C@]4(C)[C@@]3(F)[C@@H](O)C[C@]2(C)[C@@]1(O)C(=O)CO [dexamethasone] |  |  |  |  |  |  |  | −34 | −13
